Here are results for 1 compound from article PMC4579270, “Identification and Characterization of an Irreversible Inhibitor of CDK2” (Chemistry & Biology, 2015).

Where two headings read alike, the source gives them in different places. A value given as a limit tells only on which side of the number the result lay.

As usually defined, the remaining activity is the signal under treatment as a percentage of the control signal.

Holding throughout (assay): Dundee kinase screen re-test (standard format and 4 hour pre-incubation)
Holding throughout (format): biochemical

One assay deals with Lck (Homo sapiens, UniProt P06239). How it is done:
(§1) Prior to determining its cellular activity, we carried out a screen to assess its selectivity against a panel of 131 protein kinases under conditions that would not distinguish between a reversible or irreversible mode of action. […] These 13 kinases and 29 additional kinases, selected for their known sensitivity to other inhibitors within the purine series, were then tested in a modified screening format in which the assay was repeated following a 4-hr pre-incubation (Table S3B). […] However, conformational flexibility around the active site may promote such an interaction with a residue from another part of the structure ([Martin et al., 2012]).
(§2) Table S3, Related to Figure 4. NCL-0006300 protein kinase selectivity. (A) NU6300 was tested at a single concentration of 1µM against 131 protein kinases present in a Dundee protein kinase screen (Bain et al., 2007). Values given are % activity remaining and are the average of duplicate measurements: 0-25% (red), 26-50% (yellow), 51-80% (black) and above 81% (green). The kinase domain sequences (as defined by UniProt) of […]
(§3) have a lysine residue at a position close to CDK2 Lys88 or Lys89. However, in the structure of tyrosine-protein kinase BTK (PDB ID: 3GEN) the residue equivalent to CDK2 Asp86 is Cys481 and therefore there is the potential for a covalent adduct to be formed through this side chain. Ephrin type-B receptor 3 (UniProt entry P54753) also encodes a cysteine residue (Cys717) that by sequence alignment would be predicted to be close to the CDK2 lysine pair. (B) Selected kinases were re-tested in the Dundee kinase screen against NU6300 at a single concentration of 0.5 µM both in the standard assay format and following a 4 hour pre-incubation in the presence of NU6300. Kinases which have very low activity after the 4 hour incubation so that results might not be wholly reliable are boxed in salmon. Kinases where the activity after a 4 hour pre-incubation is < 50% that in the standard assay format are highlighted in red.

The target of the next assay is PAK5 (Homo sapiens, UniProt Q9P286). Particulars: PAK5, 0.5µM. How it is done: as §1, §2, §3
Sequence of PAK5 (Q9P286 whole entry): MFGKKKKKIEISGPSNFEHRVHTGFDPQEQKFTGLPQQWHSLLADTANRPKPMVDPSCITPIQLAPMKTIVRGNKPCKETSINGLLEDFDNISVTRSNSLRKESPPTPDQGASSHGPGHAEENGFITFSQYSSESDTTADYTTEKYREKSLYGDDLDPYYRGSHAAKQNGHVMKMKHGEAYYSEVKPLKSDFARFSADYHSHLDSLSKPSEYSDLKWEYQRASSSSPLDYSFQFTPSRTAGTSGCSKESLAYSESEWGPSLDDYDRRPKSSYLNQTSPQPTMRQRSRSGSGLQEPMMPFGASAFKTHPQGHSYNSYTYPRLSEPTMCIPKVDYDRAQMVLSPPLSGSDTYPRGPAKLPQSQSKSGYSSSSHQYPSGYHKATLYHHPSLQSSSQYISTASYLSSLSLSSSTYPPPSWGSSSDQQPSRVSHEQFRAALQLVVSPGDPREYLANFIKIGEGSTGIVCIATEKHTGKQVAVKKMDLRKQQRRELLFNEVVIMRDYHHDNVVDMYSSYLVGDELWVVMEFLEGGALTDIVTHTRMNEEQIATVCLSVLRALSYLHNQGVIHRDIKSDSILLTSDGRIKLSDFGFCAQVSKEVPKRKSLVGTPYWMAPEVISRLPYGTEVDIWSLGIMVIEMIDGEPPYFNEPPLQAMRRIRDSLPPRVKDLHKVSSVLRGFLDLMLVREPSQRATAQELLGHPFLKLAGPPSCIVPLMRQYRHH
Another assay addresses VEG-FR1 (Homo sapiens, UniProt P17948). The conditions noted are these: VEG-FR1, 0.5µM. How it is done:
as §1, §2, §3

A further assay concerns the target T1, NUAK1 (Homo sapiens, UniProt O60285).
T1 sequence (O60285 1-661): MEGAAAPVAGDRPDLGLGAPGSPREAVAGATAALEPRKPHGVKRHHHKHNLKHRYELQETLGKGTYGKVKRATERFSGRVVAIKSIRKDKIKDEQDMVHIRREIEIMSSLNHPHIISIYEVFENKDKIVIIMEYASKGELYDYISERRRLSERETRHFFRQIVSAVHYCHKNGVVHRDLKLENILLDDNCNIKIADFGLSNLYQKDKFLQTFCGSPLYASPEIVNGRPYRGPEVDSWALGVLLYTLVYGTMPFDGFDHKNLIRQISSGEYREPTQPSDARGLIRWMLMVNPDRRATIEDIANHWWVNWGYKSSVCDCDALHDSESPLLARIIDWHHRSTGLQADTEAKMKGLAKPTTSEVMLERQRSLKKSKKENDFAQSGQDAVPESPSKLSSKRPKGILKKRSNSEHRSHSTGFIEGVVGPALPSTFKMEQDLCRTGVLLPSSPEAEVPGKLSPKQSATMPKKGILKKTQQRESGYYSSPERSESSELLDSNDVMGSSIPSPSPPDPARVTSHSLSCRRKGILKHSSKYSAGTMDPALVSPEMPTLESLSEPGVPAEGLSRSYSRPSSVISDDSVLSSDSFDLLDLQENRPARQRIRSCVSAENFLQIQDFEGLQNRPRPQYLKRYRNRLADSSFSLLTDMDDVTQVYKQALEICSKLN
Particulars: NUAK1, 0.5µM. As to the method: as §1, §2, §3

A further assay deals with CHK2 (Homo sapiens, UniProt O96017). The conditions noted are these: CHK2, 0.5µM. As to the method: as §1, §2, §3
Sequence of CHK2 (O96017 whole entry): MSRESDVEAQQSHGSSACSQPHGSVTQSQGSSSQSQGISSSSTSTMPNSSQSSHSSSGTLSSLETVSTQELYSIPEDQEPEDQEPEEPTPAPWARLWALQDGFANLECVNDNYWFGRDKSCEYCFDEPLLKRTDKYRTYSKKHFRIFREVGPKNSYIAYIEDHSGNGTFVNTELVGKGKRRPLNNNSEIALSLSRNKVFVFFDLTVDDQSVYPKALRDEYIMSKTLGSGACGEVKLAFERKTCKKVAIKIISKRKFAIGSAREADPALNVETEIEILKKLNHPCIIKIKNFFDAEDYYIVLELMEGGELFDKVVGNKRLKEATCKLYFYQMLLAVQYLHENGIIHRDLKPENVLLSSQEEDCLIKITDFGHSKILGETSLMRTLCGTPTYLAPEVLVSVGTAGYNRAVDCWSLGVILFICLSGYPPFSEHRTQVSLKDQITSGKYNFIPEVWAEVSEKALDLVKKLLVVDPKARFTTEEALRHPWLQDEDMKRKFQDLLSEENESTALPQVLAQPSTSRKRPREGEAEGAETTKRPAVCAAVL
The target of a further assay is T2, Aurora A (Homo sapiens, UniProt O14965).
T2 sequence (O14965 1-403): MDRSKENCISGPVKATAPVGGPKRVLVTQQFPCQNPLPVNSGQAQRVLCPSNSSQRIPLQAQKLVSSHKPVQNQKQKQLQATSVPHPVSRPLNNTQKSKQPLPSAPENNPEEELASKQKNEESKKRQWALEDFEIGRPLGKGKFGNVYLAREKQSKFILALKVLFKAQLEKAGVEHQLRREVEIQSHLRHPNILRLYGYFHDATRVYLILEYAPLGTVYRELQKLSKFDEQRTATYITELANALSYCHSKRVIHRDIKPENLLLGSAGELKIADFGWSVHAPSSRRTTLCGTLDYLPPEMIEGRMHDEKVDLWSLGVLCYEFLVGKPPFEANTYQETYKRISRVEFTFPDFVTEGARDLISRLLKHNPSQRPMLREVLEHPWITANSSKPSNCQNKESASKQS
How it is done: as §1, §2, §3

Where [1] appears, read: 4hr RT preincubation, read-out: %Remaining activity at 0.5µM NU6300 - 4hr RT preincubation.
The mark [2] stands for this setting: usual format, read-out: %Remaining activity at 0.5µM NU6300 - Usual assay format.

Sequence of VEG-FR1 (P17948 27-1338): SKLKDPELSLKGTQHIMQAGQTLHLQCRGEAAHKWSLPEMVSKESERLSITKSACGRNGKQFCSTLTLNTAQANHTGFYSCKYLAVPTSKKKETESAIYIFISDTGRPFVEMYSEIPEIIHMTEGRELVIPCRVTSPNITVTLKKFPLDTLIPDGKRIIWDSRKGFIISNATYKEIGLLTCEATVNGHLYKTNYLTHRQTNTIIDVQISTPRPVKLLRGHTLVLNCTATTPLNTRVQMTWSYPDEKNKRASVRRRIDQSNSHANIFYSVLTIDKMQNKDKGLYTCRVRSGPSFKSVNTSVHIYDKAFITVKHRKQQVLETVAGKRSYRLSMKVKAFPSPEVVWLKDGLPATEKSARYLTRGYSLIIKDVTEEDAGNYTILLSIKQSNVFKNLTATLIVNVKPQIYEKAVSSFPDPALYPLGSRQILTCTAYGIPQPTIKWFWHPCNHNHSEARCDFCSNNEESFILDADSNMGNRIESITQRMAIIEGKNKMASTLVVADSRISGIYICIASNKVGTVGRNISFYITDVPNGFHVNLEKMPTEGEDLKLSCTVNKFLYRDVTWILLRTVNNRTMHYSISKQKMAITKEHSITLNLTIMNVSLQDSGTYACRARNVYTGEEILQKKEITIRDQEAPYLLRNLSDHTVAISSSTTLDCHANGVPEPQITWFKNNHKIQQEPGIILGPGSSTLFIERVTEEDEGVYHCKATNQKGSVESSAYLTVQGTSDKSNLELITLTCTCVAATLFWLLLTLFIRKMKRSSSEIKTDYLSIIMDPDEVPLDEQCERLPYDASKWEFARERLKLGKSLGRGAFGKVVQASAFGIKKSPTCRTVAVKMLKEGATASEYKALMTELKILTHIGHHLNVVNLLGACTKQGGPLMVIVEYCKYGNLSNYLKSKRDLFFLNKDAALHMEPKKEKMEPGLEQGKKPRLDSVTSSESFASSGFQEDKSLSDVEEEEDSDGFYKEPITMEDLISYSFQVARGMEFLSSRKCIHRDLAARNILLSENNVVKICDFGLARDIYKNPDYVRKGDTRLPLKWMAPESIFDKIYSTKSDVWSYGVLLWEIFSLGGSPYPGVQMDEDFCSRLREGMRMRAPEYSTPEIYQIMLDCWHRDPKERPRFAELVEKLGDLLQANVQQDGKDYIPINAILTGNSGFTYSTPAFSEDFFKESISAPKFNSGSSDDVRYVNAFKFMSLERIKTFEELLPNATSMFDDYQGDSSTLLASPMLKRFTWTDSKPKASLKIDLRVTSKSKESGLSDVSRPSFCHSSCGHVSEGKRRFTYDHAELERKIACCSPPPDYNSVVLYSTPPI
Sequence of Lck (P06239 whole entry): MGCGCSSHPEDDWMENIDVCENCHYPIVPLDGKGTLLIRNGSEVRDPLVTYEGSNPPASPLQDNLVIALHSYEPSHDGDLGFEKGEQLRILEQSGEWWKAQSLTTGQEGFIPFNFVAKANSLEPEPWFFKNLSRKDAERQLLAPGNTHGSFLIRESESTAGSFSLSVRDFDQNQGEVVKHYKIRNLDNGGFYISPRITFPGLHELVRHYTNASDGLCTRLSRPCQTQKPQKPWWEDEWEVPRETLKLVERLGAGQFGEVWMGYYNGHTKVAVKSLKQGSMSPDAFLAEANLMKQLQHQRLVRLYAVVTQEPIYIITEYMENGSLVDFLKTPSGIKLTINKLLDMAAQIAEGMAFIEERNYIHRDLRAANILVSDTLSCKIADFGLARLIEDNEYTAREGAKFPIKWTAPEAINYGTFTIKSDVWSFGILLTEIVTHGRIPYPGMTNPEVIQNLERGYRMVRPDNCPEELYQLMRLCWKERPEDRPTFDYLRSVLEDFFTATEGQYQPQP

`C=CS(=O)(=O)c1ccc(Nc2nc(OCC3CCCCC3)c3nc[nH]c3n2)cc1` [NU6300, 6-(cyclohexylmethoxy)-N-(4-(vinylsulfonyl)phenyl)-9H-purin-2-amine]: the remaining activity at 0.5 µM at Lck (setting [1]) came to 60%; on Lck (setting [2]), 67%; at PAK5 (setting [1]) it was 53%; on PAK5 (setting [2]), 76%; at VEG-FR1 (setting [1]) it was 51%; on VEG-FR1 (setting [2]) it was 43%. In addition, the remaining activity at 0.5 µM stood at 18% on NUAK1 (setting [1]); 12% on NUAK1 (setting [2]); 120% at CHK2 (setting [1]); 55% at CHK2 (setting [2]); 6% on Aurora A (setting [1]); 26% on Aurora A (setting [2]). Further, the “additional loss of activity after pre-incubation” value at Aurora A (4-hr pre-incubation vs usual format, 0.5 µM) is listed as above 50%.
